Where two headings read alike, the source gives them in different places.
Key:
[1] = Drug stability in human liver microsomes; type: in vitro ADME
From the text: Testing of Drug Stability in Human Liver Microsomes
This assay involves exposing a test compound to vesicles which contain the contents of digestive organelles (endoplasmic reticula) derived from human liver cells. The tests were done by Microconstants Inc., San Diego, Calif., using methods substantially as described in J. R. Hill, “In vitro drug metabolism using liver microsomes,” Curr. Protocols Pharmacol., Chapter 7, Unit 7.8 (2004), John Wiley & Sons, Inc.
The results, in Table 1 below, indicate the percentage decomposition of the test compound after 1 hour. […] Although degraded as rapidly, or even more rapidly than DM, other compounds remain of interest due to their receptor binding activities, as detailed further below.

[2] = target: sigma-1 receptors (Homo sapiens (Human), UniProt Q99720); assay: biochemical; type: binding
[3] = target: phencyclidine site of NMDA-type glutamate receptors; assay: NMDA receptor (phencyclidine site) radioligand binding inhibition
Description: In vitro binding assays for the phencyclidine site of NMDA-type glutamate receptors, and for sigma-1 receptors, both of which are known to be bound by DM, were conducted by Sekisui Medical Co., Ltd. of Ibaraki, Japan. In these assays, DM acts as an antagonist at NMDA receptors, which are excitatory in their effects, thereby allowing DM to reduce, calm, and modulate unwanted neuronal activity in neuronal networks that are activated by glutamate agonist activity at NMDA receptors. DM acts as an agonist at sigma-1 receptors, which are inhibitory receptors, thereby allowing DM to reduce unwanted neuronal activity by a second mechanism. Assays for sigma-1 and NMDA (phencyclidine site) receptor affinities, based on inhibition of radioligand binding, provided the results shown in Table 2 below.

[4] = Caco-2 bidirectional permeability assay; type: in vitro ADME; set-up: Papp A→B / Papp B→A: dose or concentration left out as unconfirmed; conditions: human
From the text: The human colon carcinoma cell Caco-2 provides a well-established and effective model for predicting intestinal absorption of chemicals, and in determining the mechanism of transport. […] The method is used to assess the bidirectional permeability of a test compound, from the apical to the basolateral side (A-B) of a Caco-2 cell monolayer membrane, and vice versa (B-A). R. B. van Breemen, Y. Li, “Caco-2 cell permeability assays to measure drug absorption,” Expert Opin. Drug Metab. […] The transport rate of a compound across the monolayer is highly predictive of the in vivo absorption of the compound across the gut wall, and the Caco-2 permeability assay is an FDA-recommended method for evaluating the absorption of orally-administered drugs. Results of this assay for selected reference drugs and compounds of the invention are set out in Table 3.

[5] = target: human recombinant hERG (Homo sapiens (Human), UniProt Q12809); assay: hERG radioligand (3H-astemizole) binding assay
From the text: Cardiac Potassium Channel (hERG) Assays
The human ether-a-go-go related gene (hERG) encodes the inward-rectifying voltage-gated potassium channel (IKr) in the heart, which is involved in cardiac repolarization. Inhibition of the hERG current causes QT interval prolongation, potentially resulting in ventricular tachyarrhythmia, and the detection of this potential liability is desirable at an early stage of drug discovery.

[6] = target: κ opioid receptor (Homo sapiens (Human), UniProt P41145); assay: biochemical; conditions: 3H-diprenorphine binding; for IC50: read-out: Opiate κ IC50; for Ki: read-out: Opiate κ Ki
[7] = target: μ opioid receptor (Homo sapiens (Human), UniProt P35372); assay: μ opioid receptor radioligand (3H-diprenorphine) binding assay
[8] = target: human serotonin transporter (Homo sapiens (Human), UniProt P31645); assay: biochemical; conditions: 3H-imipramine binding, HEK-293 membranes; for IC50: read-out: SERT IC50; for Ki: read-out: SERT Ki
From the text: Serotonin Transporter (SERT) Assay
The serotonin transporter (SERT) is a monoamine transporter protein that transports serotonin from the synaptic cleft back to the presynaptic neuron (serotonin reuptake.) Serotonin modulates emotional states in humans, and inhibition of SERT activity is the basis for the SSRI class of antidepressants.

[9] = cited from earlier work
[10] = inhibition of radioligand binding, read-out: Sigma-1 IC50
[11] = inhibition of radioligand binding, read-out: Sigma-1 Ki

Sequence of human recombinant hERG (Q12809 whole entry, looked up): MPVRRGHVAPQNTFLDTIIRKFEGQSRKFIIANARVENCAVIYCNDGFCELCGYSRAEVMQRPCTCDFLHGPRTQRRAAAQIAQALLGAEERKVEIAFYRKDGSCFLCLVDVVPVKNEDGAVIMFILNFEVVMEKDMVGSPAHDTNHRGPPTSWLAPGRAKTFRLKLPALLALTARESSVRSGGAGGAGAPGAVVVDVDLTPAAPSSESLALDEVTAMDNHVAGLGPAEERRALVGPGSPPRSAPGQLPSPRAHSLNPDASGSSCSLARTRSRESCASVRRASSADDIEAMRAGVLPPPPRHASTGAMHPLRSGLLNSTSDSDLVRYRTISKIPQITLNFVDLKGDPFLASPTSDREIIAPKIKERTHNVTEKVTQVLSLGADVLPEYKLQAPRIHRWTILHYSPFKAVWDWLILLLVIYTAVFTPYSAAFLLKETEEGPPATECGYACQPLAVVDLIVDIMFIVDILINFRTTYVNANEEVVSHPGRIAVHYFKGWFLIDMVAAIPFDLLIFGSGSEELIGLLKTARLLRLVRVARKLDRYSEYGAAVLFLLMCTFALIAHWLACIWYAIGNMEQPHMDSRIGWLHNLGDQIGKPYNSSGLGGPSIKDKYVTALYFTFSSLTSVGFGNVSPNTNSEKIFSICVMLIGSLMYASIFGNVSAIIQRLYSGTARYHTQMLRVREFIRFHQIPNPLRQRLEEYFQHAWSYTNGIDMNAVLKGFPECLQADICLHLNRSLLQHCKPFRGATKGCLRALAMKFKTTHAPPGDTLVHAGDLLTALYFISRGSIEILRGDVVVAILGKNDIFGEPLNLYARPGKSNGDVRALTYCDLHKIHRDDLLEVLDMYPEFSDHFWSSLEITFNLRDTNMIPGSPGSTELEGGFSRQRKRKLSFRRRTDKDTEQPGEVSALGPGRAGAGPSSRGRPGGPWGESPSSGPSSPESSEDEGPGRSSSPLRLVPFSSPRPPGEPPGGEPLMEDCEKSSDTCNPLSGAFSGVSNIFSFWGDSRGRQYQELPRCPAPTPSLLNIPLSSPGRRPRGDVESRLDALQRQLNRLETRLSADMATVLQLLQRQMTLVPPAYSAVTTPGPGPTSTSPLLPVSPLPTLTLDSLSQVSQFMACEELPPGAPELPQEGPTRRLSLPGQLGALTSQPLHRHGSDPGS
Sequence of sigma-1 receptors (Q99720 whole entry, looked up): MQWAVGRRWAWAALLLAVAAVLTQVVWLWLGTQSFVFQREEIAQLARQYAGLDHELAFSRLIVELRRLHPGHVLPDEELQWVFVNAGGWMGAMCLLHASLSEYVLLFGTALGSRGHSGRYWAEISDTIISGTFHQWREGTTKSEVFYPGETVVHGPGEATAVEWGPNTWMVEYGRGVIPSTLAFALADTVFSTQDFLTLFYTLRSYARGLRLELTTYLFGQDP

[2H]C([2H])(Oc1ccc2c(c1)[C@]13CCCC[C@@H]1[C@H](C2)N(C)CC3)C(F)F [CNS1-D2, (1S,9S,10S)-4-(1,1-dideuterio-2,2-difluoroethoxy)-17-methyl-17-azatetracyclo[7.5.3.0^1,10.0^2,7]heptadeca-2(7),3,5-triene]
half-life [1]: 123 min
IC50 [2, 10]: 57.8 nM
Ki [2, 11]: 40.6 nM
IC50 [3]: > 30000 nM

[2H]C([2H])(Oc1ccc2c(c1)[C@]13CCCC[C@@H]1[C@H](C2)N(C([2H])([2H])[2H])CC3)C(F)F [CNS1-D5, (1S,9S,10S)-4-(1,1-dideuterio-2,2-difluoroethoxy)-17-(trideuteriomethyl)-17-azatetracyclo[7.5.3.0^1,10.0^2,7]-heptadeca-2,4,6-triene]
half-life [1]: > 240 min
% decomposition at 1 hour [1]: 9.7%
Ki [2, 11]: 22 nM
Ki [3]: 9900 nM
Papp A→B at 0.1 μM ([4]; apical to basolateral): 14.4 ×10⁻⁶ cm/s
Papp B→A at 0.1 μM ([4]; basolateral to apical): 12.5 ×10⁻⁶ cm/s
Papp A→B at 1 μM ([4]; apical to basolateral): 18.4 ×10⁻⁶ cm/s
Papp B→A at 1 μM ([4]; basolateral to apical): 15.4 ×10⁻⁶ cm/s
IC50 [5]: 34500 nM
Ki [5]: 7480 nM
IC50 [6]: 29800 nM
Ki [6]: 12000 nM
IC50 [7]: 54700 nM
Ki [7]: 10100 nM
IC50 [8]: 44.1 nM
Ki [8]: 26.2 nM

CN1CC[C@@]23CCCC[C@@H]2C1Cc1ccc(OCC(F)F)cc13 [CNS1]
rate of metabolism and degradation compared with DM [1]: metabolized and degraded less rapidly than DM
% decomposition at 1 hour [1]: 6.1%

CN1CC[C@@]23CCCC[C@@H]2C1Cc1ccc(OCCF)cc13 [CNS2]
rate of metabolism and degradation compared with DM [1]: metabolized and degraded less rapidly than DM
% decomposition at 1 hour [1]: 15.4%

CN1CC[C@@]23CCCC[C@@H]2[C@@H]1Cc1ccc(OCc2ccncc2)cc13 [CNS4]
% decomposition at 1 hour [1]: 100%

CN1CC[C@@]23CCCC[C@@H]2[C@@H]1Cc1ccc(O)c(Br)c13 [CNS6, (1S,9S,10S)-3-bromo-4-hydroxy-17-methyl-17-azatetracyclo[7.5.3.0^1,10.0^2,7]-heptadeca-2(7),3,5-triene]
% decomposition at 1 hour [1]: 56%
IC50 [2, 10]: 172 nM
Ki [2, 11]: 121 nM
IC50 [3]: > 30000 nM

CN1CC[C@@]23CCCCC2C1Cc1ccc(OCC(F)F)c(Br)c13 (stereo partly drawn) [CNS6-A1-D2]
t1/2 [1]: 60 min
IC50 [2, 10]: 21.8 nM
Ki [2, 11]: 15.3 nM
IC50 [3]: > 30000 nM

COc1ccc2c(c1Br)[C@]13CCCCC1[C@H](C2)N(C)CC3 (stereo partly drawn) [CNS6-A2]
IC50 [2, 10]: 247 nM

COc1cc2c(cc1Br)CC1C3CCCC[C@@]23CCN1C (stereo partly drawn) [CNS7-M]
IC50 [2]: > 10000 nM

COc1ccc2c(c1)[C@]13CCCCC1C(C2)N(Cc1cccnc1)CC3 (stereo partly drawn) [CNS10]
% decomposition at 1 hour [1]: 98.4%

C=CCN(C)CC[C@@]12CCCC[C@@H]1C=Cc1ccc(OC)cc12 [CNS22]
half-life [1]: 36 min
IC50 [2]: 29.1 nM
Ki [2]: 20.5 nM

[2H]C([2H])(Oc1ccc2c(c1)[C@]1(CCN(C)CC=C)CCCC[C@@H]1C=C2)C(F)F [CNS23-D2]
half-life [1]: 32 min
IC50 [2, 10]: 11.1 nM
Ki [2, 11]: 7.8 nM

[2H]C([2H])(Oc1ccc2c(c1)[C@]13CCCC[C@@H]1[C@H](C2)N(CCOC)CC3)C(F)F [CNS27-D2, (1S,9S,10S)-4-(1,1-dideuterio-2,2-difluoro-ethoxy)-17-(2-methoxyethyl)-17-azatetracyclo[7.5.3.0^1,10.0^2,7]-heptadeca-2,4,6-triene]
Ki [2, 11]: 1.6 nM
Ki [3]: > 23000 nM
Papp A→B at 0.1 μM ([4]; apical to basolateral): 10.2 ×10⁻⁶ cm/s
Papp B→A at 0.1 μM ([4]; basolateral to apical): 9.76 ×10⁻⁶ cm/s
Papp A→B at 1 μM ([4]; apical to basolateral): 11.6 ×10⁻⁶ cm/s
Papp B→A at 1 μM ([4]; basolateral to apical): 13.1 ×10⁻⁶ cm/s
IC50 [5]: 22300 nM
Ki [5]: 4800 nM
IC50 [6]: 28800 nM
Ki [6]: 11600 nM
IC50 [7]: 124000 nM
Ki [7]: 23000 nM
IC50 [8]: 2680 nM
Ki [8]: 1590 nM

CN1CC[C@@]23CCCC[C@@H]2[C@@H]1Cc1ccc(OCC(F)(F)F)cc13 [CNS-222, (1S,9S,10S)-4-(2,2,2-trifluoroethoxy)-17-methyl-17-azatetracyclo[7.5.3.0^1,10.0^2,7]heptadeca-2(7),3,5-triene]
IC50 [2, 10]: 50 nM

CN1CC[C@@]23CCCC[C@@H]2[C@@H]1Cc1ccc(O)cc13 [Dextorphan (DX), reference compound]
IC50 [2, 10]: 259 nM
Ki [2, 11]: 182 nM
IC50 [3]: 1530 nM
Ki [3]: 1110 nM

COc1ccc2c(c1)[C@]13CCCC[C@@H]1[C@H](C2)N(C)CC3 [Dextromethorphan (DM), 3-methoxy-17-methyl-(9α,13α,14α)-morphinan, reference compound]
half-life [1]: 35 min
% decomposition at 1 hour [1]: 69%
IC50 [2]: 137 nM
Ki [2]: 96.3 nM
IC50 [3]: 6820 nM
Ki [3]: 4520 nM
Papp A→B at 0.1 μM ([4]; apical to basolateral): 15.9 ×10⁻⁶ cm/s
Papp B→A at 0.1 μM ([4]; basolateral to apical): 10.8 ×10⁻⁶ cm/s
Papp A→B at 1 μM ([4]; apical to basolateral): 19 ×10⁻⁶ cm/s
Papp B→A at 1 μM ([4]; basolateral to apical): 14.2 ×10⁻⁶ cm/s
IC50 [5]: 49100 nM
Ki [5]: 10600 nM
IC50 [7]: 51700 nM
Ki [7]: 9580 nM
plasma levels ([9]; fast metabolizers, 30 mg dose, four hours post ingestion): less than 5 ng/ml
plasma levels ([9]; poor metabolizers, oral dose of 30 mg, at 24 hours): above 5 ng/ml

Cc1ccc2c(c1)[C@]13CCCC[C@@H]1[C@H](C2)N(C)CC3 [Dimemorphan (DIM), reference compound]
t1/2 [1]: 22 min
IC50 [2, 10]: 527 nM
Ki [2, 11]: 371 nM
IC50 [3]: > 30000 nM

[2H]C([2H])(Oc1ccc2c(c1)[C@]13CCCC[C@@H]1[C@H](C2)NCC3)C(F)F [N-desmethyl CNS1-D2, (1S,9S,10S)-4-(1,1-dideuterio-2,2-difluoro-ethoxy)-17-azatetracyclo[7.5.3.0^1,10.0^2,7]heptadeca-2,4,6-triene]
half-life [1]: > 240 min
% decomposition at 1 hour [1]: 10.1%
Ki [2, 11]: 70 nM
Ki [3]: 3080 nM
Papp A→B at 0.1 μM ([4]; apical to basolateral): 9.71 ×10⁻⁶ cm/s
Papp B→A at 0.1 μM ([4]; basolateral to apical): 6.33 ×10⁻⁶ cm/s
Papp A→B at 1 μM ([4]; apical to basolateral): 10.8 ×10⁻⁶ cm/s
Papp B→A at 1 μM ([4]; basolateral to apical): 10.1 ×10⁻⁶ cm/s
IC50 [5]: 26600 nM
Ki [5]: 5730 nM
IC50 [6]: 37700 nM
Ki [6]: 15200 nM
IC50 [7]: 142000 nM
Ki [7]: 26300 nM
IC50 [8]: 470 nM
Ki [8]: 279 nM

CC(C)NCC(O)COc1cccc2ccccc12 (stereo not drawn) [Propranolol, reference compound]
Papp A→B ([4]; apical to basolateral): 21.2 ×10⁻⁶ cm/s
Papp B→A ([4]; basolateral to apical): 39 ×10⁻⁶ cm/s
